Tests used:
[1] = tested on: methicillin resistant S. aureus Mu50 strain (S. aureus ATCC700699) biofilm; assay: Biofilm susceptibility to vancomycin, pre-treatment regimen (biofilm formed in presence of compound, then vancomycin); format: cell-based; details: for Pretreat (100 μM): percentage Colony Forming Units (CFU's) per biofilm: compound 100 μM during biofilm formation; for Pretreat (100 μM): percentage Colony Forming Units (CFU's) per biofilm / Pretreat. (25 μM): percentage Colony Forming Units (CFU's) per biofilm: then VAN 20 μg/ml, compared to the untreated (negative) control; for EC50: concentration needed to get 50% killing compared to antibiotic alone (VAN 20 μg/ml) and complete killing, read-out: Pretreat. (EC50); for Pretreat. (25 μM): percentage Colony Forming Units (CFU's) per biofilm: compound 25 μM during biofilm formation
Method: (§1) The compounds were evaluated for their effect on biofilm susceptibility both under pre-treatment and combination treatment regimens. In the pre-treatment regimen, a methicillin resistant S. aureus Mu50 strain (S. aureus ATCC700699) was allowed to form biofilms in the presence of the compounds after which the biofilm was treated with vancomycin (20 μg/ml). In the combination treatment regimen, S. aureus Mu50 was allowed to form a mature biofilm after which it was treated with a combination of a compound and vancomycin. In brief, 100 μl of a standardized inoculum (10^8 CFU/ml) was placed in the wells of a round-bottom 96-well microtiter plate. The cells were allowed to adhere to the plate in the absence (combined treatment) or presence (pre-treatment) of the compounds (0.1-250 μM) for 4 h at 37° C. After this adhesion step, non-adhered cells were removed, the wells were rinsed and fresh medium with or without the compounds was added. The plates were incubated for an additional 20 h at 37° C. After this, the medium was removed, biofilms were rinsed with physiological saline and vancomycin (20 μg/ml) was added alone (pre-treatment) or with the compounds (combined treatment, 0.1-250 μM). Plates were placed at 37° C. for 24 h after which medium was removed, wells were rinsed and the surviving cells in each condition were collected. The number of surviving cells under each condition was compared to vancomycin treatment alone and was assessed by conventional plating. The REF compound (hamamelitannin) was also observed for its effect on biofilm susceptibility towards other antibiotics (incl. vancomycin, cefoxitin, tobramycin, cefazolin, cefalonium, daptomycin, linezolide and cephalexin). Biofilms were formed as described above and were treated with the antibiotics alone or in combination with the REF compound (250 μM). The number of surviving cells under each condition was compared to the untreated control biofilm and was assessed by conventional plating.

[2] = tested on: methicillin resistant S. aureus Mu50 strain (S. aureus ATCC700699) biofilm; assay: Biofilm susceptibility to vancomycin, combination treatment regimen (mature biofilm treated with compound plus vancomycin); format: cell-based; details: for Combin. (100 μM): percentage Colony Forming Units (CFU's) per biofilm: compound 100 μM together with VAN 20 μg/ml on mature biofilm; for Combin. (100 μM): percentage Colony Forming Units (CFU's) per biofilm / Combin. (25 μM): percentage Colony Forming Units (CFU's) per biofilm: compared to the untreated (negative) control; for EC50: concentration needed to get 50% killing compared to antibiotic alone (VAN 20 μg/ml) and complete killing, read-out: Combin. (EC50); for Combin. (25 μM): percentage Colony Forming Units (CFU's) per biofilm: compound 25 μM together with VAN 20 μg/ml on mature biofilm
Method: as §1

Structure (SMILES) | Pretreat (100 μM): percentage Colony Forming Units (CFU's) per biofilm [1] | EC50 [1] | Combin. (100 μM): percentage Colony Forming Units (CFU's) per biofilm [2] | EC50 [2] | Pretreat. (25 μM): percentage Colony Forming Units (CFU's) per biofilm [1] | Combin. (25 μM): percentage Colony Forming Units (CFU's) per biofilm [2]
O=C(NC[C@]1(O)CO[C@H](CN2C(=O)c3ccccc3C2=O)[C@H]1O)c1ccnnc1 [compound 258, N-(((3S,4R,5R)-5-((1,3-dioxoisoindolin-2-yl)methyl)-3,4-dihydroxytetrahydrofuran-3-yl)methyl)pyridazine-4-carboxamide] | 0.73 percentage | 5.85 µM | 23.56 percentage | 11.4 µM |  | 
O=C(NC[C@H]1OC[C@@](O)(CNC(=O)c2cc(O)c(O)c(O)c2)[C@@H]1O)c1cc(O)c(O)c(O)c1 [compound 264, N,N′-(((2R,3R,4S)-3,4-dihydroxytetrahydrofuran-2,4-diyl)bis(methylene))bis(3,4,5-trihydroxybenzamide)] | 22.35 percentage | 63.8 µM | 57.74 percentage | 191 µM |  | 
O=C(NC[C@]1(O)CO[C@H](CNC(=O)c2ccccc2Cl)[C@H]1O)c1cncnc1 [compound 248, N-(((3S,4R,5R)-5-((2-chlorobenzamido)methyl)-3,4-dihydroxytetrahydrofuran-3-yl)methyl)pyrimidine-5-carboxamide] |  |  |  |  | 64.01 percentage | 65.41 percentage
O=C(Cc1ccccc1)NC[C@H]1OC[C@@](O)(CNC(=O)c2ccccc2)[C@@H]1O [compound 189, N-(((3S,4R,5R)-3,4-dihydroxy-5-((2-phenylacetamido)methyl)tetrahydrofuran-3-yl)methyl)benzamide] | 59.77 percentage |  | 58.95 percentage |  |  | 
O=C(NC[C@]1(O)CO[C@H](CNC(=O)c2ccccc2Cl)[C@H]1O)c1cccc(F)c1 [compound 240, 2-chloro-N-(((2R,3R,4S)-4-((3-fluorobenzamido)methyl)-3,4-dihydroxytetrahydrofuran-2-yl)methyl)benzamide] |  |  |  |  | 118.37 percentage | 91.32 percentage
O=C(NC[C@H]1OC[C@@](O)(CNC(=O)c2ccccc2)[C@@H]1O)Nc1ccccc1 [compound 223, N-(((3S,4R,5R)-3,4-dihydroxy-5-((3-phenylureido)methyl)tetrahydrofuran-3-yl)methyl)benzamide] | 23.99 percentage |  | 18.72 percentage |  |  | 
CN(C[C@H]1OC[C@@](O)(CNC(=O)c2ccccc2)[C@@H]1O)C(=O)c1ccccc1 [compound 261, N-(((2R,3R,4S)-4-(benzamidomethyl)-3,4-dihydroxytetrahydrofuran-2-yl)methyl)-N-methylbenzamide] | 6.09 percentage | 8.5 µM | 10.02 percentage | 24.3 µM |  | 
O=C(NC[C@]1(O)CO[C@H](CNC(=O)c2ccccc2Cl)[C@H]1O)c1ccc(Cl)cc1 [compound 234, 2-chloro-N-(((2R,3R,4S)-4-((4-chlorobenzamido)methyl)-3,4-dihydroxytetrahydrofuran-2-yl)methyl)benzamide] |  |  |  |  | 61.12 percentage | 56.96 percentage
O=C(NC[C@H]1OC[C@@](O)(CN2C(=O)c3ccccc3C2=O)[C@@H]1O)c1ccccc1Cl [compound 231, 2-chloro-N-(((2R,3R,4S)-4-((1,3-dioxoisoindolin-2-yl)methyl)-3,4-dihydroxytetrahydrofuran-2-yl)methyl)benzamide] | 8.18 percentage | 2.63 µM | 28.85 percentage | 39 µM |  | 
O=C(NC[C@H]1OC[C@@](O)(CNC(=O)c2ccccc2)[C@@H]1O)c1ccc(C(F)(F)F)cc1 [compound 157, N-(((2R,3R,4S)-4-(benzamidomethyl)-3,4-dihydroxytetrahydrofuran-2-yl)methyl)-4-(trifluoromethyl)benzamide] | 15.95 percentage |  | 11.25 percentage |  |  | 
O=C(NC[C@H]1OC[C@@](O)(CNC(=O)c2ccccc2)[C@@H]1O)c1ccc(Cl)nc1 [compound 202, N-(((2R,3R,4S)-4-(benzamidomethyl)-3,4-dihydroxytetrahydrofuran-2-yl)methyl)-6-chloronicotinamide] | 14.00 percentage |  | 18.24 percentage |  |  | 
O=C(NC[C@]1(O)CO[C@H](CNC(=O)c2ccccn2)[C@H]1O)c1ccccc1 [compound 176, N-(((2R,3R,4S)-4-(benzamidomethyl)-3,4-dihydroxytetrahydrofuran-2-yl)methyl)picolinamide] | 21.56 percentage |  | 36.02 percentage |  |  | 
O=C(NC[C@]1(O)CO[C@H](CNC(=O)c2ccccc2Cl)[C@H]1O)c1ccc(F)cc1 [compound 233, 2-chloro-N-(((2R,3R,4S)-4-((4-fluorobenzamido)methyl)-3,4-dihydroxytetrahydrofuran-2-yl)methyl)benzamide] |  |  |  |  | 88.61 percentage | 91.63 percentage
O=C(NC[C@]1(O)CO[C@H](CNC(=O)c2cnc(Cl)cc2Cl)[C@H]1O)c1ccccc1 [compound 198, N-(((2R,3R,4S)-4-(benzamidomethyl)-3,4-dihydroxytetrahydrofuran-2-yl)methyl)-4,6-dichloronicotinamide] | 19.18 percentage | 10.8 µM | 11.25 percentage | 7.52 µM |  | 
O=C(NC[C@]1(O)CO[C@H](CNC(=O)c2ccccc2Cl)[C@H]1O)c1cccnc1 [compound 243, N-(((3S,4R,5R)-5-((2-chlorobenzamido)methyl)-3,4-dihydroxytetrahydrofuran-3-yl)methyl)nicotinamide] |  |  |  |  | 85.00 percentage | 51.83 percentage
O=C(CCc1ccccc1)NC[C@]1(O)CO[C@H](CNC(=O)c2ccccc2Cl)[C@H]1O [compound 260, 2-chloro-N-(((2R,3R,4S)-3,4-dihydroxy-4-((3-phenylpropanamido)methyl)tetrahydrofuran-2-yl)methyl)benzamide] | 57.01 percentage |  | 71.12 percentage |  |  | 
